# Source: PubChem BioAssay (NCI)
#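 Growth conditions: 96-well plates. Treatment: test compound, 48 hours, 5 concentrations. Analysis: linear interpolation between bracketing concentrations; unreached endpoints set to highest concentration. At the GI50, growth is halved. TGI marks complete inhibition of growth.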
# Key:
# Assay in all cases: NCI-60 cell line screen, 48 h
# 786-0 renal = tested on: 786-0 renal
# A498 renal = tested on: A498 renal
# A549 NSCLC = tested on: A549 NSCLC
# ACHN renal = tested on: ACHN renal
# BT-549 breast = tested on: BT-549 breast
# CAKI-1 renal = tested on: CAKI-1 renal
# COLO 205 colon = tested on: COLO 205 colon
# DU-145 prostate = tested on: DU-145 prostate
# EKVX NSCLC = tested on: EKVX NSCLC
# HCC-2998 colon = tested on: HCC-2998 colon
# HCT-116 colon = tested on: HCT-116 colon
# HCT-15 colon = tested on: HCT-15 colon
# HL-60(TB) leukemia = tested on: HL-60(TB) leukemia
# HOP-62 NSCLC = tested on: HOP-62 NSCLC
# HOP-92 NSCLC = tested on: HOP-92 NSCLC
# HT29 colon = tested on: HT29 colon
# IGROV1 ovarian = tested on: IGROV1 ovarian
# K-562 leukemia = tested on: K-562 leukemia
# KM12 colon = tested on: KM12 colon
# LOX IMVI melanoma = tested on: LOX IMVI melanoma
# M14 melanoma = tested on: M14 melanoma
# MALME-3M melanoma = tested on: MALME-3M melanoma
# MCF7 breast = tested on: MCF7 breast
# MDA-MB-231 breast = tested on: MDA-MB-231 breast
# MDA-MB-435 = tested on: MDA-MB-435
# MDA-N = tested on: MDA-N
# MOLT-4 leukemia = tested on: MOLT-4 leukemia
# NCI-H226 lung = tested on: NCI-H226 lung
# NCI-H23 lung = tested on: NCI-H23 lung
# NCI-H460 lung = tested on: NCI-H460 lung
# NCI-H522 lung = tested on: NCI-H522 lung
# NCI/ADR-RES ovarian = tested on: NCI/ADR-RES ovarian
# OVCAR-3 ovarian = tested on: OVCAR-3 ovarian
# OVCAR-5 ovarian = tested on: OVCAR-5 ovarian
# OVCAR-8 ovarian = tested on: OVCAR-8 ovarian
# PC-3 prostate = tested on: PC-3 prostate
# RPMI-8226 leukemia = tested on: RPMI-8226 leukemia
# RXF 393 renal = tested on: RXF 393 renal
# SF-268 CNS = tested on: SF-268 CNS
# SF-295 CNS = tested on: SF-295 CNS
# SF-539 CNS = tested on: SF-539 CNS
# SK-MEL-2 melanoma = tested on: SK-MEL-2 melanoma
# SK-MEL-28 melanoma = tested on: SK-MEL-28 melanoma
# SK-MEL-5 melanoma = tested on: SK-MEL-5 melanoma
# SK-OV-3 ovarian = tested on: SK-OV-3 ovarian
# SN12C renal = tested on: SN12C renal
# SNB-19 CNS = tested on: SNB-19 CNS
# SNB-75 CNS = tested on: SNB-75 CNS
# SW-620 colon = tested on: SW-620 colon
# T-47D breast = tested on: T-47D breast
# TK-10 renal = tested on: TK-10 renal
# U251 CNS = tested on: U251 CNS
# UACC-257 melanoma = tested on: UACC-257 melanoma
# UACC-62 melanoma = tested on: UACC-62 melanoma
# UO-31 renal = tested on: UO-31 renal
# CCRF-CEM leukemia = tested on: CCRF-CEM leukemia
# OVCAR-4 ovarian = tested on: OVCAR-4 ovarian
# SR leukemia = tested on: SR leukemia
smiles,measurement,setting,value
CC1OC(OC2C(O)CC(OC3C(O)CC(OC4CCC5(C)C(CCC6C5CCC5(C)C(C7=CC(=O)OC7)CCC65O)C4)OC3C)OC2C)CC(O)C1O (centres undefined),GI50,786-0 renal,< 12.4 nM
same,TGI,786-0 renal,21.9 nM
same,GI50,A498 renal,< 10 nM
same,TGI,A498 renal,30.1 nM
same,TGI,A549 NSCLC,29.5 nM
same,TGI,ACHN renal,106 nM
same,TGI,BT-549 breast,61.8 nM
same,TGI,CAKI-1 renal,52.7 nM
same,TGI,COLO 205 colon,142 nM
same,GI50,DU-145 prostate,< 12 nM
same,TGI,DU-145 prostate,< 20.4 nM
same,TGI,EKVX NSCLC,80.9 nM
same,TGI,HCC-2998 colon,584 nM
same,GI50,HCT-116 colon,11 nM
same,TGI,HCT-116 colon,100 nM
same,TGI,HCT-15 colon,86.7 nM
same,GI50,HL-60(TB) leukemia,45.1 nM
same,TGI,HL-60(TB) leukemia,415 nM
same,TGI,HOP-62 NSCLC,41.7 nM
same,TGI,HOP-92 NSCLC,190 nM
same,TGI,HT29 colon,123 nM
same,TGI,IGROV1 ovarian,542 nM
same,TGI,K-562 leukemia,204 nM
same,TGI,KM12 colon,209 nM
same,GI50,LOX IMVI melanoma,< 12.1 nM
same,TGI,LOX IMVI melanoma,58.7 nM
same,GI50,M14 melanoma,95.6 nM
same,TGI,M14 melanoma,268 nM
same,TGI,MALME-3M melanoma,75.6 nM
same,TGI,MCF7 breast,> 100000 nM
same,TGI,MDA-MB-231 breast,786 nM
same,TGI,MDA-MB-435,147 nM
same,TGI,MDA-N,138 nM
same,GI50,MOLT-4 leukemia,165 nM
same,TGI,NCI-H226 lung,174 nM
same,TGI,NCI-H23 lung,51.7 nM
same,GI50,NCI-H460 lung,< 11.6 nM
same,TGI,NCI-H460 lung,< 18.7 nM
same,TGI,NCI-H522 lung,22.4 nM
same,TGI,NCI/ADR-RES ovarian,293 nM
same,TGI,OVCAR-3 ovarian,48.5 nM
same,TGI,OVCAR-5 ovarian,148 nM
same,GI50,OVCAR-8 ovarian,< 18.7 nM
same,TGI,OVCAR-8 ovarian,70.8 nM
same,TGI,PC-3 prostate,170 nM
same,TGI,RPMI-8226 leukemia,1470 nM
same,TGI,RXF 393 renal,78.5 nM
same,TGI,SF-268 CNS,61.4 nM
same,TGI,SF-295 CNS,99.8 nM
same,TGI,SF-539 CNS,21.9 nM
same,TGI,SK-MEL-2 melanoma,447 nM
same,TGI,SK-MEL-28 melanoma,423 nM
same,TGI,SK-MEL-5 melanoma,62.4 nM
same,TGI,SK-OV-3 ovarian,143 nM
same,TGI,SN12C renal,130 nM
same,TGI,SNB-19 CNS,304 nM
same,TGI,SNB-75 CNS,653 nM
same,TGI,SW-620 colon,282 nM
same,GI50,T-47D breast,56 nM
same,TGI,T-47D breast,1730 nM
same,TGI,TK-10 renal,87.6 nM
same,GI50,U251 CNS,< 17.7 nM
same,TGI,U251 CNS,46.7 nM
same,TGI,UACC-257 melanoma,219 nM
same,TGI,UACC-62 melanoma,152 nM
same,TGI,UO-31 renal,151 nM
C=CCc1cccc2cc(C(N)=O)c(=N)oc12,TGI,786-0 renal,> 100000 nM
same,TGI,A498 renal,> 100000 nM
same,TGI,A549 NSCLC,> 100000 nM
same,TGI,ACHN renal,> 100000 nM
same,TGI,BT-549 breast,> 100000 nM
same,TGI,CAKI-1 renal,> 100000 nM
same,TGI,CCRF-CEM leukemia,> 100000 nM
same,TGI,COLO 205 colon,> 100000 nM
same,TGI,DU-145 prostate,> 100000 nM
same,TGI,HCC-2998 colon,> 100000 nM
same,TGI,HCT-116 colon,> 100000 nM
same,TGI,HCT-15 colon,> 100000 nM
same,TGI,HL-60(TB) leukemia,> 100000 nM
same,TGI,HOP-62 NSCLC,> 100000 nM
same,TGI,HOP-92 NSCLC,> 100000 nM
same,TGI,HT29 colon,> 100000 nM
same,TGI,IGROV1 ovarian,90300 nM
same,TGI,KM12 colon,> 100000 nM
same,TGI,LOX IMVI melanoma,> 100000 nM
same,TGI,M14 melanoma,> 100000 nM
same,TGI,MDA-MB-231 breast,> 100000 nM
same,TGI,MDA-MB-435,> 100000 nM
same,TGI,MDA-N,> 100000 nM
same,TGI,MOLT-4 leukemia,> 100000 nM
same,TGI,NCI-H226 lung,> 100000 nM
same,TGI,NCI-H23 lung,> 100000 nM
same,TGI,NCI-H460 lung,> 100000 nM
same,TGI,NCI/ADR-RES ovarian,> 100000 nM
same,TGI,OVCAR-3 ovarian,> 100000 nM
same,TGI,OVCAR-4 ovarian,> 100000 nM
same,TGI,OVCAR-5 ovarian,> 100000 nM
same,TGI,OVCAR-8 ovarian,> 100000 nM
same,TGI,PC-3 prostate,> 100000 nM
same,TGI,RPMI-8226 leukemia,> 100000 nM
same,TGI,RXF 393 renal,> 100000 nM
same,TGI,SK-MEL-2 melanoma,> 100000 nM
same,TGI,SK-MEL-28 melanoma,> 100000 nM
same,TGI,SK-MEL-5 melanoma,> 100000 nM
same,TGI,SK-OV-3 ovarian,> 100000 nM
same,TGI,SN12C renal,> 100000 nM
same,TGI,SNB-19 CNS,> 100000 nM
same,TGI,SNB-75 CNS,> 100000 nM
same,TGI,SR leukemia,> 100000 nM
same,TGI,SW-620 colon,> 100000 nM
same,TGI,T-47D breast,> 100000 nM
same,TGI,U251 CNS,> 100000 nM
same,TGI,UACC-257 melanoma,> 100000 nM
same,TGI,UACC-62 melanoma,> 100000 nM
